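48-hour exposure; five concentrations; linearly interpolated endpoints. The concentration for full growth arrest is given as TGI.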
Assays:
Test in all cases: NCI anticancer screen, dose series, 48 h
[1] = system: 786-0 renal
[2] = system: A498 renal
[3] = system: A549 NSCLC
[4] = system: ACHN renal
[5] = system: BT-549 breast
[6] = system: CAKI-1 renal
[7] = system: CCRF-CEM leukemia
[8] = system: COLO 205 colon
[9] = system: DU-145 prostate
[10] = system: EKVX NSCLC
[11] = system: HCC-2998 colon
[12] = system: HCT-116 colon
[13] = system: HCT-15 colon
[14] = system: HOP-62 NSCLC
[15] = system: HOP-92 NSCLC
[16] = system: HS 578T breast
[17] = system: HT29 colon
[18] = system: IGROV1 ovarian
[19] = system: K-562 leukemia
[20] = system: KM12 colon
[21] = system: LOX IMVI melanoma
[22] = system: M14 melanoma
[23] = system: MALME-3M melanoma
[24] = system: MCF7 breast
[25] = system: MDA-MB-231 breast
[26] = system: MDA-MB-435
[27] = system: MDA-N
[28] = system: MOLT-4 leukemia
[29] = system: NCI-H226 lung
[30] = system: NCI-H23 lung
[31] = system: NCI-H460 lung
[32] = system: NCI-H522 lung
[33] = system: NCI/ADR-RES ovarian
[34] = system: OVCAR-3 ovarian
[35] = system: OVCAR-4 ovarian
[36] = system: OVCAR-5 ovarian
[37] = system: OVCAR-8 ovarian
[38] = system: PC-3 prostate
[39] = system: RPMI-8226 leukemia
[40] = system: RXF 393 renal
[41] = system: SF-268 CNS
[42] = system: SF-295 CNS
[43] = system: SF-539 CNS
[44] = system: SK-MEL-2 melanoma
[45] = system: SK-MEL-28 melanoma
[46] = system: SK-MEL-5 melanoma
[47] = system: SK-OV-3 ovarian
[48] = system: SN12C renal
[49] = system: SNB-19 CNS
[50] = system: SNB-75 CNS
[51] = system: SR leukemia
[52] = system: SW-620 colon
[53] = system: T-47D breast
[54] = system: TK-10 renal
[55] = system: U251 CNS
[56] = system: UACC-257 melanoma
[57] = system: UACC-62 melanoma
[58] = system: UO-31 renal
[59] = system: HL-60(TB) leukemia

`CSCCC(NC(=O)OC(C)(C)C)C(=O)NCCNc1ccc(NCCNC(=O)C(CCSC)NC(=O)OC(C)(C)C)c2c1C(=O)c1ccccc1C2=O` (stereo not given) was tested, and the TGI [1] was 12.8 µM, the TGI [2] was 21.1 µM and the TGI [3] was 7.93 µM. The TGI [4] was 30.3 µM, the TGI [5] was 9.59 µM and the TGI [6] was > 41.5 µM. For the same compound, the TGI [7] was > 38 µM, the TGI [8] was 5.41 µM and the TGI [9] was 33.2 µM. For the same compound, the TGI [10] was > 27.7 µM, the TGI [11] was 5.99 µM and the TGI [12] was > 29.6 µM. For the same compound, the TGI [13] was > 100 µM, the TGI [14] was 8.2 µM and the TGI [15] was 10.1 µM. It also gave a TGI [16] of 31.2 µM, a TGI [17] of 7.51 µM and a TGI [18] of 9.85 µM. The TGI [19] was > 32.7 µM, the TGI [20] was > 63.6 µM and the TGI [21] was 22.8 µM. For the same compound, the TGI [22] was 14.1 µM, the TGI [23] was 9.35 µM and the TGI [24] was 19.2 µM. For the same compound, the TGI [25] was 8.54 µM, the TGI [26] was 7.49 µM and the TGI [27] was 7.03 µM. It also gave a TGI [28] of 11.5 µM, a TGI [29] of 19.7 µM and a TGI [30] of 15.9 µM. For the same compound, the TGI [31] was 23.1 µM, the TGI [32] was 3.38 µM and the TGI [33] was > 100 µM. For the same compound, the TGI [34] was 15.6 µM, the TGI [35] was 24.8 µM and the TGI [36] was 17.2 µM. The TGI [37] was 5.4 µM, the TGI [38] was 17.7 µM and the TGI [39] was 12.2 µM. For the same compound, the TGI [40] was 52.8 µM, the TGI [41] was 18.7 µM and the TGI [42] was 21.1 µM. It also gave a TGI [43] of 6.96 µM, a TGI [44] of 35.9 µM and a TGI [45] of 3.69 µM. For the same compound, the TGI [46] was 13.2 µM, the TGI [47] was 32.9 µM and the TGI [48] was 21 µM. The TGI [49] was 16.6 µM, the TGI [50] was 8.54 µM and the TGI [51] was 11.3 µM. The TGI [52] was 7.3 µM, the TGI [53] was 12.1 µM and the TGI [54] was 15.1 µM. For the same compound, the TGI [55] was 10.6 µM, the TGI [56] was 12.1 µM and the TGI [57] was 14.4 µM. The TGI [58] was > 100 µM.
In the case of `CCCCSc1n/c(=C\c2ccc(N(C)C)cc2)c2nnnn12`, the TGI [1] is reported as > 100 µM, the TGI [2] is reported as > 100 µM and the TGI [3] is reported as > 100 µM. For the same compound, the TGI [4] was > 100 µM, the TGI [5] was > 100 µM and the TGI [6] was > 100 µM. For the same compound, the TGI [8] was > 100 µM, the TGI [9] was > 100 µM and the TGI [10] was > 100 µM. The TGI [11] was > 100 µM, the TGI [12] was > 100 µM and the TGI [13] was > 100 µM. The TGI [59] was > 100 µM, the TGI [14] was > 100 µM and the TGI [15] was > 100 µM. For the same compound, the TGI [16] was > 100 µM, the TGI [17] was > 100 µM and the TGI [18] was > 100 µM. For the same compound, the TGI [19] was > 100 µM, the TGI [20] was > 100 µM and the TGI [21] was > 100 µM. For the same compound, the TGI [22] was > 100 µM, the TGI [23] was > 100 µM and the TGI [24] was > 100 µM. For the same compound, the TGI [25] was > 100 µM, the TGI [26] was > 100 µM and the TGI [27] was > 100 µM. The TGI [28] was > 100 µM, the TGI [29] was > 100 µM and the TGI [30] was > 100 µM. For the same compound, the TGI [31] was > 100 µM, the TGI [32] was > 100 µM and the TGI [33] was > 100 µM. The TGI [34] was > 100 µM, the TGI [35] was > 100 µM and the TGI [36] was > 100 µM. The TGI [37] was > 100 µM, the TGI [38] was > 100 µM and the TGI [39] was > 100 µM. The TGI [40] was > 100 µM, the TGI [41] was > 100 µM and the TGI [42] was > 100 µM. For the same compound, the TGI [43] was > 100 µM, the TGI [44] was > 100 µM and the TGI [45] was > 100 µM. For the same compound, the TGI [47] was > 100 µM, the TGI [48] was > 100 µM and the TGI [49] was > 100 µM. The TGI [50] was > 100 µM, the TGI [51] was > 100 µM and the TGI [52] was > 100 µM. The TGI [53] was > 100 µM, the TGI [54] was > 100 µM and the TGI [55] was > 100 µM. The TGI [56] was > 100 µM, the TGI [57] was > 100 µM and the TGI [58] was > 100 µM.

Reference: PubChem BioAssay (NCI)
